≈ marks a conversion by molar mass, not a printed value.

In this test the test system is Mycobacterium tuberculosis. Nature of the test: Antibacterial activity against INH-resistant Mycobacterium tuberculosis. Format: functional.
Take `C/C(=N/NC(=O)c1ccncc1)c1ccc(N/C(S)=N/c2ccc(C)cc2)cc1`: inhibition of growth (MIC) required 3.86 µM (≈ 1.56 µg/mL). In turn, `C/C(=N/NC(=O)c1ccncc1)c1ccc(N/C(S)=N/c2ccc(F)cc2)cc1` showed an MIC of 0.49 µM (≈ 0.2 µg/mL).

`COc1ccc(N/C(S)=N\c2ccc(/C(C)=N\NC(=O)c3ccncc3)cc2)cc1`: the minimum inhibitory concentration (MIC) stood at 1.85 µM (≈ 0.776 µg/mL).

On to `CCOc1ccc(N/C(S)=N\c2ccc(/C(C)=N\NC(=O)c3ccncc3)cc2)cc1`, for which the minimum inhibitory concentration (MIC) was found to be 1.79 µM (≈ 0.776 µg/mL). This MIC and that of the molecule before are within 1.5-fold of each other.

As for `C/C(=N/NC(=O)c1ccncc1)c1ccc(N/C(S)=N/c2ccccc2)cc1`, the MIC was 4 µM (≈ 1.56 µg/mL). Consider `C/C(=N/NC(=O)c1ccncc1)c1ccc(N/C(S)=N/c2ccc(Br)cc2)cc1`, for which the minimum inhibitory concentration (MIC) is 1.66 µM (≈ 0.778 µg/mL). Molecule `NNC(=O)c1ccncc1` [ISONIAZID] registered an MIC of 90.9 µM (≈ 12.5 µg/mL).

The term MIC denotes the smallest concentration in the dilution series that meets the test's criterion for growth inhibition. A low value points to inhibition by little substance.

Source of the values: ChEMBL document CHEMBL1149454, “Synthesis and in vitro antitubercular activity of some 1-[(4-sub)phenyl]-3-(4-{1-[(pyridine-4-carbonyl)hydrazono]ethyl}phenyl)thiourea” (Bioorg Med Chem Lett, 2006).
